The results in this text go back to patent publication US4636520A, “Antifungal composition employing pyrrolnitrin in combination with an imidazole compound” (Fujisawa Pharmaceutical Co., Ltd., priority 1984, dated 1987).

Holding throughout (type): cell-based
One assay has as its system Candida albicans FP581. Briefly: Antimicrobial test 1 (agar plate MIC), organism e. The method, then:
(§1) Pyrrolnitrin (PY) alone, clotrimazole (CL) alone, a 2:1 mixture of PY and CL, a 1:1 mixture of PY and CL and 1:2 mixture of PY and CL were tested for antimicrobial activity in various strains of microorganisms.
e: Candida albicans FP581
(§2) Composition A: PY (10 mg) was dissolved in 1 ml of ethanol, and the solution is mixed with 9 ml of sterilized water to give a milk-white suspension.
(§3) Composition B: CL (10 mg) was dissolved in 1 ml of N,N-dimethylformamide, and the solution was mixed with 9 ml of sterilized water to give a milk-white suspension.
(§4) Composition C: The above Compositions A and B were mixed together in a volume ratio of 2:1 to give a suspension. […]
(§5) Plates with varied active ingredient concentrations were prepared by admixing each of Compositions A-E prepared in the above manner with Sabouraud agar medium (for test organisms a-f) or Mueller-Hinton medium (for test organism g), followed by appropriate dilution with the medium. These plates were inoculated respectively with each of the test organisms a-g and incubated under the conditions given below, and the minimum inhibitory concentration (MIC; μg/ml) at which the growth of each test organism is inhibited was determined. […]
(§6) The FIC indexes given in the parentheses of Tables 1 and 2 were calculated by using the following formulas. […]

The test system of another assay is Candida albicans FP579. In words: Antimicrobial test 1 (agar plate MIC), organism c. As for the experimental part:
as §1
c: Candida albicans FP579
as §2, §3, §4, §5, §6

The test system of assay [1] is Candida albicans FP580. Briefly: Antimicrobial test 1 (agar plate MIC), organism d. As for the experimental part:
as §1
(§7) d: Candida albicans FP580
as §2, §3, §4, §5, §6

Assay [2] has as its system Candida albicans Yu-1200. Briefly: Antimicrobial test 2 (agar plate MIC), organism a. As for the experimental part:
(§8) Pyrrolnitrin (PY) alone, clotrimazole (CL) alone, miconazole alone, econazole alone, oxyconazole alone and 1:1 mixtures of PY and CL, PY and miconazole, PY and econazole and PY and oxyconazole were test for antimicrobial activity in various strains of microorganisms.
(§9) a: Candida albicans Yu-1200
(§10) Compositions A was prepared as stated above.
(§11) Composition F, G and H: A milk-white suspension containing 10 mg of miconazole (Composition F), a transparent solution containing 10 mg of econazole (Composition G) and a milk-white suspension containing 10 mg of oxyconazole (Composition H) were respectively prepared in a similar way to that of Composition B.
(§12) Composition I: The above-mentioned Compositions A and F were mixed together in a volume ratio of 1:1 to give a suspension.
(§13) Composition J: The above-mentioned Compositions A and G were mixed together in a volume ratio of 1:1 to give a suspension.
(§14) Composition K: The above-mentioned Compositions A and H were mixed together in a volume ratio of 1:1 to give a suspension.
(§15) Plates with varied active ingredient concentrations were prepared by admixing each of Compositions A and F to K prepared in the above manner with Sabouraud agar medium, followed by appropriate dilution with the medium. These plates were inoculated respectively with each of the test organisms a and d and incubated at 30° C. for 48 hours. The minimum inhibitory concentration (MIC; μg/ml) at which the growth of each test organism is inhibited was determined.
(§16) The FIC indexes given in the parentheses of Tables 1 and 2 were calculated by using the following formulas. [formula]

Assay [3] concerns Staphylococcus epidermidis 91. In words: Antimicrobial test 1 (agar plate MIC), organism g. As for the experimental part:
as §1
g: Staphylococcus epidermidis 91
as §2, §3, §4, §5, §6

The test system of the next assay is Candida albicans FP578. Briefly: Antimicrobial test 1 (agar plate MIC), organism b. As for the experimental part: as §1
b: Candida albicans FP578
as §2, §3, §4, §5, §6

Assay [4] relates to Candida albicans Yu-1200. Briefly: Antimicrobial test 1 (agar plate MIC), organism a. As for the experimental part: as §1, §9, §2, §3, §4, §5, §6
For assay [5], the system named is Candida albicans FP580. In words: Antimicrobial test 2 (agar plate MIC), organism d. The method, then: as §8, §7, §10, §11, §12, §13, §14, §15, §16
The subject of assay [6] is Aspergillus oryzae IFO 5239. In words: Antimicrobial test 1 (agar plate MIC), organism f. As to conditions: IFO5239, 168 h. As for the experimental part: as §1
f: Aspergillus oryzae IFO 5239
as §2, §3, §4, §5, §6

Each structure is given as a SMILES string. ≈ marks a conversion by molar mass, not a printed value. Where two headings read alike, the source gives them in different places.

In the case of `O=[N+]([O-])c1c(Cl)cccc1-c1c[nH]cc1Cl` [Composition A, 3-(2-nitro-3-chlorophenyl)-4-chloropyrrole], the minimal inhibitory concentration (MIC) in the assay on Candida albicans FP581 (Candida albicans FP581, Sabouraud agar, 37° C., 24 hours, read-out: MIC) was > 100 µg/mL; in the assay with Candida albicans FP579 (Candida albicans FP579, Sabouraud agar, 37° C., 24 hours, read-out: MIC), 25 µg/mL (≈ 97.2 µM); with Candida albicans FP580 [1] (Candida albicans FP580, Sabouraud agar, 37° C., 24 hours, read-out: MIC) it was 1.56 µg/mL (≈ 6.07 µM); with Candida albicans Yu-1200 [2] (YU1200, Candida albicans Yu-1200, Sabouraud agar, 30° C., 48 hours, read-out: MIC), 100 µg/mL (≈ 389 µM); in [3] (Staphylococcus epidermidis 91, Mueller-Hinton medium, 37° C., 20 hours, read-out: MIC), 100 µg/mL (≈ 389 µM); in the assay with Candida albicans FP578 (Candida albicans FP578, Sabouraud agar, 37° C., 24 hours, read-out: MIC), 3.13 µg/mL (≈ 12.2 µM). Also, the MIC is 100 µg/mL (≈ 389 µM) in the assay on Candida albicans Yu-1200 [4] (YU1200, Candida albicans Yu-1200, Sabouraud agar, 37° C., 24 hours, read-out: MIC); 0.78 µg/mL (≈ 3.03 µM) in the assay on Candida albicans FP580 [5] (Candida albicans FP580, Sabouraud agar, 30° C., 48 hours, read-out: MIC); > 100 µg/mL in [6] (Aspergillus oryzae IFO 5239, Sabouraud agar, 30° C., 1 week, read-out: MIC).
As for `Clc1ccccc1C(c1ccccc1)(c1ccccc1)n1ccnc1` [Composition B, 1-[(2-chlorophenyl)diphenylmethyl]-1H-imidazole], the minimal inhibitory concentration (MIC) worked out at 25 µg/mL (≈ 72.5 µM) in the assay with Candida albicans FP581 (Candida albicans, FP581, 24 h); 6.25 µg/mL (≈ 18.1 µM) with Candida albicans FP579 (Candida albicans, FP579, 24 h); 6.25 µg/mL (≈ 18.1 µM) with Candida albicans FP580 [1] (Candida albicans, FP580, 24 h); 25 µg/mL (≈ 72.5 µM) in [3] (Staphylococcus epidermidis, 91, 20 h); 6.25 µg/mL (≈ 18.1 µM) with Candida albicans FP578 (Candida albicans, FP578, 24 h); 6.25 µg/mL (≈ 18.1 µM) in the assay with Candida albicans Yu-1200 [4] (Candida albicans, YU1200, 24 h). It took 12.5 µg/mL (≈ 36.2 µM) to inhibit growth in assay [6] (Aspergillus oryzae) (MIC).
As to `Clc1ccc(COC(Cn2ccnc2)c2ccc(Cl)cc2Cl)c(Cl)c1` (stereo not shown) [Composition F, 1-[2-(2,4-dichlorophenyl)-2-[(2,4-dichlorophenyl)methoxy]ethyl]-1H-imidazole], the minimum inhibitory concentration (MIC) in the assay on Candida albicans Yu-1200 [2] (Candida albicans, YU1200, 48 h) stood at 6.25 µg/mL (≈ 15 µM); in the assay on Candida albicans FP580 [5] (Candida albicans, FP580, 48 h) it was 12.5 µg/mL (≈ 30 µM).
In the same order, the values of `Clc1ccc(COC(Cn2ccnc2)c2ccc(Cl)cc2Cl)cc1` (stereo not shown) [Composition G, 1-[2-[(4-chlorophenyl)methoxy]-2-(2,4-dichlorophenyl)ethyl]-1H-imidazole] are 6.25 µg/mL (≈ 16.4 µM) and 6.25 µg/mL (≈ 16.4 µM).
With `Clc1ccc(C(Cn2ccnc2)=NOCc2ccc(Cl)cc2Cl)cc1` [Composition H], the MIC is 25 µg/mL (≈ 63.3 µM) with Candida albicans Yu-1200 [2] (Candida albicans Yu-1200, Sabouraud agar, 30° C., 48 hours) and 25 µg/mL (≈ 63.3 µM) against Candida albicans FP580 [5] (Candida albicans FP580, Sabouraud agar, 30° C., 48 hours).

Usually MIC stands for the lowest concentration found to suppress growth.
